Measured values from patent US11286459B2, “Cell culturing method using nucleic acid-containing medium” (Astellas Pharma Inc., priority 2015, dated 2022).

Experiments:
Assay type in all cases: cell-based, Chinese hamster
[1] = tested on: IgG-expressing CHO cell line (anti-human α9 antibody RY9A2v12 (M34L) 012); test: Fed-batch culture with deoxyuridine, thymidine and/or deoxycytidine (Example 4); details: 25 mg/L
Method: Using a culture medium for animal cells as a cell growth medium, fed-batch culture of an IgG-expressing CHO cell line (a CHO cell line in which an anti-human α9 antibody ([…]) 012) had been recombinantly expressed, as described in WO 2009/088064) was started at an initial viable cell density of 1×10^6 cells/mL under the conditions of 36.5° C. and 5% CO2. At the start of culture, deoxyuridine, thymidine, and/or deoxycytidine was/were each added to a final concentration of 0 or 25 mg/L according to Table 2. The culture was continued until day 14 of culture while a feed culture medium was added everyday from day 2 of culture. Sampling was done at appropriate timings. Viable cell densities were measured by trypan blue exclusion method, and antibody concentrations were measured by protein A column HPLC. […] [table]

[2] = tested on: Fab′ fragment-expressing CHO cell line (anti-human NGF antibody Fab′ fragment 1-15 (N52D-A)-Fab′); test: Fed-batch culture, comparison with uridine and thymidine (Example 9); details: 25 mg/L of each added component
Method: Using a culture medium for animal cells as a cell growth medium, fed-batch culture of a Fab′ fragment-expressing CHO cell line (a CHO cell line in which an anti-human NGF antibody Fab′ fragment (1-15 (N52D-A)-Fab′) had been expressed, as described in WO 2013/022083) was started at an initial viable cell density of 1×10^6 cells/mL under the conditions of 36.5° C. and 5% CO2. At the start of culture, deoxyuridine, thymidine and deoxycytidine were each added to a final concentration of 25 mg/L. To provide comparative conditions, uridine and thymidine were added, at the start of culture, at concentrations of 7 mg/L and 0.24 mg/L, respectively (these concentrations are the same as those described in Examples of EP 1818392 B1). The culture was continued under each of the different conditions described above until day 14 of culture while a feed medium was added everyday from day 2 of culture. Sampling was done at appropriate timings. Viable cell densities were measured by trypan blue exclusion method, and antibody concentrations were measured by reverse-phase HPLC.

[3] = tested on: IgG-expressing CHO cell line (anti-human TSLP receptor antibody, fully human T7-27); test: Fed-batch culture with deoxyuridine added on day 2 (Example 1); trypan blue exclusion, protein A column HPLC
Method: Using a culture medium for animal cells as a cell growth medium, fed-batch culture of an IgG-expressing CHO cell line (a CHO cell line in which an anti-human thymic stromal lymphopoietin (TSLP) receptor antibody (fully human T7-27) had been recombinantly expressed, as described in WO 2015/020193) was started at an initial viable cell density of 1×10^6 cells/mL under the conditions of 36.5° C. and 5% CO2. On day 2 of culture, deoxyuridine was added to cultures to a final concentration of 10, 25, 50, 100 or 200 mg/L. The culture was continued until day 14 of culture while a feed medium was added everyday from day 2 of culture. Sampling was done at appropriate timings. Viable cell densities were measured by trypan blue exclusion study, and antibody concentrations were measured by protein A column HPLC. […] It was also observed that even addition of […] deoxyuridine enhancedantibody production during the cell culture until day 10 to day 12.

[4] = tested on: IgG-expressing CHO cell line (anti-human α9 integrin antibody RY9A2v12 (M34L) 012); test: Batch culture with deoxyuridine (Example 6)
Method: Using a culture medium for animal cells as a cell growth medium, batch culture of an IgG-expressing CHO cell line (a CHO cell line in which an anti-human α9 integrin antibody (hereinafter referred to as “anti-human α9 antibody”) (RY9A2v12 (M34L) 012) had been recombinantly expressed, as described in WO 2009/088064) was started at an initial viable cell density of 0.3×10^6 cells/mL under the conditions of 36.5° C. and 5% CO2. At the start of culture, deoxyuridine was added to cultures to a final concentration of 5, 25, 100, 500 or 1000 mg/L, and then the culture was continued for 5 days. Sampling was done at appropriate timings. Viable cell densities were measured bytrypan blue exclusion method, and antibody concentrations were measured by protein A column HPLC.

[5] = tested on: IgG-expressing CHO cell line (anti-human TSLP receptor antibody, fully human T7-27); test: Fed-batch culture with deoxyuridine, thymidine and deoxycytidine added on day 2 (Example 3); details: 25 mg/L of each added component
Method: Using a culture medium for animal cells as a cell growth medium, fed-batch culture of an IgG-expressing CHO cell line (a CHO cell line in which an anti-human TSLP receptor antibody (fully human T7-27) had been recombinantly expressed, as described in WO 2015/020193) was started at an initial viable cell density of 1×10^6 cells/mL under the conditions of 36.5° C. and 5% CO2. On day 2 of culture, deoxyuridine was added to a final concentration of 25 mg/L, and thymidine and deoxycytidine were each added to cultures to a final concentration of 0 or 25 mg/L according to Table 1. The culture was continued until day 14 of culture while a feed culture medium was added everyday from day 2 of culture. Sampling was done at appropriate timings. Viable cell densities were measured by trypan blue exclusion method, and antibody concentrations were measured by protein A column HPLC. […] In contrast, in the case of addition of deoxyuridine in the presence of 25 mg/L each of thymidine and deoxycytidine (dU-dT-dC), the viable cell density, cell viability, and antibody concentration on the final day of the 14 days of culture were 12×10^6 cells/mL, approximately 78%, and 5.8 g/L, respectively; these values were higher than in the cases of addition of dU, addition of deoxyuridine and deoxycytidine (dU-dC), and addition of deoxyuridine and thymidine (dU-dT). […] [table]

[6] = tested on: IgG-expressing CHO cell line (anti-human TSLP receptor antibody, fully human T7-27); test: Fed-batch culture, comparison with uridine and thymidine (Example 7); details: 25 mg/L of each added component
Method: (§1) Using a culture medium for animal cells as a cell growth medium, fed-batch culture of an IgG-expressing CHO cell line (a CHO cell line in which an anti-human TSLP receptor antibody (fully human T7-27) had been recombinantly expressed, as described in WO 2015/020193) was started at an initial viable cell density of 1×10^6 cells/mL under the conditions of 36.5° C. and 5% CO2. At the start of culture, deoxyuridine, thymidine and deoxycytidine were each added to a final concentration of 25 mg/L. To provide comparative conditions, uridine (U) and thymidine were added, at the start of culture, at concentrations of 7 mg/L and 0.24 mg/L, respectively (these concentrations are the same as those described in Examples of EP 1818392 B1). The culture was continued under each of the different conditions described above until day 14 of culture while a feed culture medium was added everyday from day 2 of culture. Sampling was done at appropriate timings. Viable cell densities were measured by trypan blue exclusion method, and antibody concentrations were measured by protein A column HPLC.

[7] = tested on: IgG-expressing CHO cell line (anti-human TSLP receptor antibody, fully human T7-27); test: Fed-batch culture with deoxyuridine in the presence of thymidine and deoxycytidine (Example 2); details: for highest viable cell density observed during the 14 days of culture: at start of culture; for antibody concentration on the final day of culture: day 14
Method: Using a culture medium for animal cells as a cell growth medium, fed-batch culture of an IgG-expressing CHO cell line (a CHO cell line in which an anti-human TSLP receptor antibody (fully human T7-27) had been recombinantly expressed, as described in WO 2015/020193) was started at an initial viable cell density of 1×10^6 cells/mL under the conditions of 36.5° C. and 5% CO2. At the start of culture, thymidine and deoxycytidine hydrochloride (in the working examples given in the subject specification, deoxycytidine hydrochloride was actually used as deoxycytidine, and the concentrations of deoxycytidine hydrochloride are expressed by using the converted concentration value of deoxycytidine from deoxycytidine hydrochloride.) were each added to cultures to a final concentration of 25 mg/L, and deoxyuridine was added to a final concentration of 10, 25, 40, 55, 70 or 85 mg/L. The culture was continued until day 14 of culture while a feed culture medium was added everyday from day 2 of culture. Sampling was done at appropriate timings. Viable cell densities were measured by trypan blue exclusion method, and antibody concentrations were measured by protein A column HPLC.

[8] = tested on: IgG-expressing CHO cell line (anti-human α9 antibody RY9A2v12 (M34L) 012); test: Fed-batch culture, comparison with uridine and thymidine (Example 8); details: 25 mg/L of each added component
Method: as §1, with “α9” for “TSLP receptor”, “([…]) 012)” for “(fully human T7-27)”, “2009/088064)” for “2015/020193)”, “uridine” for “uridine (U)”, “feed” for “feed culture”, “HPLC. […] In contrast, the highest viable cell densities were approximately 21×10^6 cells/mL in the case of addition of 25 mg/L deoxyuridine (dU25 mg/L), and about 31×10^6 cells/mL in the case of addition of 25 mg/L each of deoxyuridine, thymidine and deoxycytidine (dUdTdC25 mg/L); these values were higher than control.” for “HPLC.”

[9] = 10 mg/L deoxyuridine with 25 mg/L each thymidine and deoxycytidine
[10] = 25 mg/L deoxyuridine with 25 mg/L each thymidine and deoxycytidine

Cc1cn([C@H]2C[C@H](O)[C@@H](CO)O2)c(=O)[nH]c1=O [thymidine]
effects when added alone (viable cell density, antibody concentration) [1]: produce effects

Nc1ccn([C@H]2C[C@H](O)[C@@H](CO)O2)c(=O)n1 [deoxycytidine]
effects when added alone (viable cell density, antibody concentration) [1]: no effect

O=c1ccn([C@H]2C[C@H](O)[C@@H](CO)O2)c(=O)[nH]1 [deoxyuridine]
highest viable cell density observed during the 14 days of culture ([2]; at start of culture, control approximately 14): approximately 26 ×10^6 cells/mL
protein concentration on the final day of culture ([2]; day 14, control approximately 2.2): approximately 3.1 g/L
antibody production during the cell culture until day 10 to day 12 ([3]; 10 mg/L deoxyuridine): enhanced
highest viable cell density observed during the 14 days of culture ([3]; 25 mg/L deoxyuridine added on day 2, control about 10): about 18 ×10^6 cells/mL
antibody concentration on the final day of culture ([3]; 25 mg/L deoxyuridine added on day 2, day 14, control 3.3): 5.5 g/L
response to deoxyuridine addition (cell growth and antibody production) ([3]; any concentration tested from 10 mg/L to 200 mg/L): enhanced cell growth and antibody production
highest viable cell density observed during the 5 days of culture ([4]; 100 mg/L deoxyuridine at start of batch culture, control approximately 7): approximately 10 ×10^6 cells/mL
effect on cell growth ([4]; any concentration tested from 5 mg/L to 500 mg/L): enhancing effect on cell growth
antibody concentration on the final day of the 14 days of culture [5]: 5.1 g/L
cell viability on the final day of the 14 days of culture [5]: approximately 61%
viable cell density on the final day of the 14 days of culture [5]: approximately 7.6 ×10^6 cells/mL
highest viable cell density observed during the 14 days of culture ([6]; at start of culture, control approximately 12): approximately 21 ×10^6 cells/mL
antibody concentration on the final day of culture ([6]; day 14, control approximately 2.9): approximately 4.6 g/L
highest viable cell density observed during the 14 days of culture [7, 9]: about 27 ×10^6 cells/mL
antibody concentration on the final day of culture [7, 9]: 5.9 g/L
highest viable cell density observed during the 14 days of culture [7, 10]: approximately 32 ×10^6 cells/mL
antibody concentration on the final day of culture [7, 10]: 6.8 g/L
enhancing effects on cell growth and antibody production ([7]; deoxyuridine 25 mg/L or higher in the presence of thymidine and deoxycytidine, versus 10 mg/L): higher enhancing effects on cell growth and antibody production
effects when added alone (viable cell density, antibody concentration) [1]: produce effects
highest viable cell density observed during the 14 days of culture ([8]; at start of culture, control about 16): approximately 21 ×10^6 cells/mL
antibody concentrations during culture versus control ([8]; FIG. 16): higher levels than control
